# In patent publication US20140227325A1, “LIGNIN-DERIVED POROUS CARBON COMPOSITION, METHODS OF PREPARATION, AND USE THEREOF” (UT-BATTELLE, LLC, priority 2013, published 2014):
# Experiments:
# [1] = N2 adsorption-desorption on drug-loaded mesoporous carbons (pore filling); format: physicochemical
# Experimental: In order to further investigate the occupancy of pore space by drug molecules, N2 adsorption-desorption experiments were performed on the drug-loaded mesoporous carbons, and the pore size distribution was calculated by the NLDFT method.
# [2] = In-vitro drug release from loaded mesoporous carbon in SGF or SIF (UV-Vis), with kinetic and diffusivity analysis; format: physicochemical
# Experimental: (§1) The loaded mesoporous carbons were dried, the external surface cleaned, and then placed into 130 cm^3 of simulated gastric fluid without pepsin (SGF; 0.2% w/v NaCl, aqueous HCl, pH adjusted to ˜1.5) or into simulated intestinal fluid (SIF) at ambient temperature for 30-50 hours under mild stirring (˜60 rpm) for in-vitro drug release. The drug concentrations were measured by UV-Vis spectroscopy utilizing a calibration curve on absorbance at various concentrations of the drug in SGF or SIF medium.
# In order to further investigate the diffusivity of the loaded drugs in the releasing media, Fick's laws of diffusion in spherical and cylindrical coordinates were utilized. Based on the assumption that drug-loaded mesoporous carbons are monolithic systems, the release profile in the spherical system can be mathematically expressed as (J. Siepmann, F. Siepmann, J., Controlled Release, 161 (2012) 351-362.):
# versus t will yield the diffusivity values for both types of systems. […] As the centers of micelles are believed to give rise to the mesopores, and because the micelles are approximately spherical in shape, a distorted spherical to cylindrical entity could serve as the closest approximation of the pore geometry. Based on these assumptions, diffusivity values have been calculated from all the release patterns for both spherical and cylindrical systems.
# versus t which also yields the diffusivity values of antipyrine from LMC-2 and PMC at three temperatures of 25° C., 35.5° C., and 50° C. Because of the surfactant templating, it was assumed that the mesopore geometries have a spherical to cylindrical shape, which became a basis for calculating the diffusivity values from each of the patterns in both cylindrical and spherical systems.
# In order to provide further insight on the temperature dependence of diffusivity, calculations were made using the Eyring equation by assuming antipyrine diffusion from the pores of the carbons is an activation process,
# where Eα is the activation energy.
# [3] = Drug loading amount by thermogravimetric analysis (TGA); format: physicochemical; conditions: for Loading percent in LMC-2: drug loaded in LMC-2, TGA; for Loading percent in PMC: drug loaded in PMC, TGA
# Experimental: as §1
# The drug loading amount in PMC and LMC-2 were measured with the help of thermogravimetric analysis (TGA). Pure mesoporous carbons, pure drugs, and drug-loaded carbons were heated under an inert atmosphere (N2) up to 1000° C., wherein the drug loading amount was calculated by comparing the relative amount of residues.
# [4] = cited from earlier work
# [5] = from LMC-1, SGF, within around 60% of total drug release
Structure (SMILES),pore filling by drug ([1]; PMC),"Diffusivity, Cylindrical ([2]; LMC/SGF)","Diffusivity, Spherical ([2]; LMC/SGF)","Diffusivity, Cylindrical ([2]; PMC/SGF)","Diffusivity, Spherical ([2]; PMC/SGF)","time to complete release ([2]; from LMC, SGF)","order of release (Korsmeyer-Peppas equation) [2, 5]","release rate constant (Korsmeyer-Peppas equation) [2, 5]","time to complete release ([2]; from PMC, SGF) [h]",Loading percent in LMC-2 [3] [%],Loading percent in PMC [3] [%],"pore filling by drug ([1]; both types of carbons (PMC, LMC-2))","Diffusivity, Cylindrical ([2]; PMC/SIF)","Diffusivity, Spherical ([2]; PMC/SIF)","initial burst, drug released within 1.5 hours ([2]; SGF) [%]","time to complete release ([2]; from PMC, SIF (pH ~6.8)) [h]",order of magnitude of diffusivity ([2]; release from LMC),order of magnitude of diffusivity ([2]; release from PMC in both SGF and SIF),"release completed ([4]; from mesoporous silica nanoparticles, pH range 5.5 to 7.4)",completion of release ([4]; from porous silica) [min]
C[C@H](CS)C(=O)N1CCC[C@H]1C(=O)O [Captopril],highest pore filling,2 × 10^−22 m^2/s,9 × 10^−23 m^2/s,2 × 10^−23 m^2/s,7 × 10^−24 m^2/s,< 20 h,0.42,3.9,~40,5,13,,,,,,,,,
NS(=O)(=O)c1cc(C(=O)O)c(NCc2ccco2)cc1Cl [Furosemide],,6 × 10^−22 m^2/s,4 × 10^−22 m^2/s,7 × 10^−23 m^2/s,4 × 10^−23 m^2/s,less than 10 hours,,,30 to 40,6.6,6.7,minimum pore filling,2 × 10^−23 m^2/s,1 × 10^−23 m^2/s,60,30 to 40,10^−22 m^2/s,10^−23 m^2/s,less than 100 minutes,
Cc1cc(=O)n(-c2ccccc2)n1C [Antipyrine],,,,,,,,,,12,22,,,,,,,,,300
